Assay results: patent US6693216B2, “Calcium double salts” (Nutrinova Nutrition Specialties & Food Ingredients GmbH, priority 2000, dated 2004)
Read-outs that look alike come from different tables or passages of the source.

Key:
Gram-negative bacteria = details: Part II, 1 g/l in apple juice pH 4.5, 25° C.
Yeasts = details: Part II, 1 g/l in apple juice pH 4.5, 25° C.
[1] = sealed
Text: Salts prepared as in example 1 were dried, stored under the specified conditions without the addition of other substances and checked at regular intervals visually for discoloration: […]

Bacilli = details: Part II, 1 g/l in apple juice pH 4.5, 25° C.
Acetic acid bacteria = details: Part II, 1 g/l in apple juice pH 4.5, 25° C.
Molds II = details: Part II, 1 g/l in apple juice pH 4.5, 25° C.
Thermophilic bacilli = details: Part II, 1 g/l in apple juice pH 4.5, 25° C.
Molds I = details: Part II, 1 g/l in apple juice pH 4.5, 25° C.
Gram-positive bacteria = details: Part II, 1 g/l in apple juice pH 4.5, 25° C.
Lactic acid bacteria = details: Part II, 1 g/l in apple juice pH 4.5, 25° C.
Clostridia = details: Part II, 1 g/l in apple juice pH 4.5, 25° C.
[2] = 1 day after inoculation (2.7 × 10^4)
[3] = 3 days after inoculation (2.7 × 10^4)
[4] = 7 days after inoculation (2.7 × 10^4)
[5] = 14 days after inoculation (2.7 × 10^4)

Structure (SMILES): C/C=C/C=C/C(=O)[O-].O=C[O-].[Ca+2]
- Number of surviving microorganisms per g of contaminated sample, Gram-negative bacteria (Gram-negative bacteria; [2]): 1.7 × 10^4 CFU/g
- Number of surviving microorganisms per g of contaminated sample, Gram-negative bacteria (Gram-negative bacteria; [3]): 2.5 × 10^3 CFU/g
- Number of surviving microorganisms per g of contaminated sample, Gram-negative bacteria (Gram-negative bacteria; [4]): 2.0 × 10^3 CFU/g
- Number of surviving microorganisms per g of contaminated sample, Gram-negative bacteria (Gram-negative bacteria; [5]): <10 CFU/g
- Number of surviving microorganisms per g of contaminated sample, Yeasts (Yeasts; 1 day after inoculation (2.6 × 10^4)): 1.3 × 10^4 CFU/g
- Number of surviving microorganisms per g of contaminated sample, Yeasts (Yeasts; 3 days after inoculation (2.6 × 10^4)): 4.3 × 10^3 CFU/g
- Number of surviving microorganisms per g of contaminated sample, Yeasts (Yeasts; 7 days after inoculation (2.6 × 10^4)): <100 CFU/g
- Number of surviving microorganisms per g of contaminated sample, Yeasts (Yeasts; 14 days after inoculation (2.6 × 10^4)): <10 CFU/g
- Time after yellow-brown discoloration of a 1% strength aqueous solution ([1]; dark at 7° C.): 12 months/>12 months
- Time after yellow-brown discoloration of the powder ([1]; dark at 7° C.): >12 months />12 months
- Time after yellow-brown discoloration of a 1% strength aqueous solution ([1]; dark at 25° C.): 12 months/>12 months
- Time after yellow-brown discoloration of the powder ([1]; dark at 25° C.): >12 months />12 months
- Time after yellow-brown discoloration of a 1% strength aqueous solution ([1]; under sunlight at 7° C.): 12 months/>12 months
- Time after yellow-brown discoloration of the powder ([1]; under sunlight at 7° C.): 12 months/>12 months
- Time after yellow-brown discoloration of a 1% strength aqueous solution ([1]; under sunlight at 25° C.): 12 months/>12 months
- Time after yellow-brown discoloration of the powder ([1]; under sunlight at 25° C.): 12 months/>12 months
- Number of surviving microorganisms per g of contaminated sample, Bacilli (Bacilli; 1 day after inoculation (3.3 × 10^4)): 3.2 × 10^3 CFU/g
- Number of surviving microorganisms per g of contaminated sample, Bacilli (Bacilli; 3 days after inoculation (3.3 × 10^4)): 1.8 × 10^3 CFU/g
- Number of surviving microorganisms per g of contaminated sample, Bacilli (Bacilli; 7 days after inoculation (3.3 × 10^4)): 1.7 × 10^3 CFU/g
- Number of surviving microorganisms per g of contaminated sample, Bacilli (Bacilli; 14 days after inoculation (3.3 × 10^4)): 1.8 × 10^3 CFU/g
- Number of surviving microorganisms per g of contaminated sample, Acetic acid bacteria (Acetic acid bacteria; 1 day after inoculation (2.8 × 10^4)): 2.1 × 10^4 CFU/g
- Number of surviving microorganisms per g of contaminated sample, Acetic acid bacteria (Acetic acid bacteria; 3 days after inoculation (2.8 × 10^4)): 1.6 × 10^4 CFU/g
- Number of surviving microorganisms per g of contaminated sample, Acetic acid bacteria (Acetic acid bacteria; 7 days after inoculation (2.8 × 10^4)): 7.6 × 10^3 CFU/g
- Number of surviving microorganisms per g of contaminated sample, Acetic acid bacteria (Acetic acid bacteria; 14 days after inoculation (2.8 × 10^4)): 2.6 × 10^4 CFU/g
- Number of surviving microorganisms per g of contaminated sample, Molds II (Molds II; 1 day after inoculation (2.5 × 10^4)): 3.9 × 10^3 CFU/g
- Number of surviving microorganisms per g of contaminated sample, Molds II (Molds II; 3 days after inoculation (2.5 × 10^4)): <100 CFU/g
- Number of surviving microorganisms per g of contaminated sample, Molds II (Molds II; 7 days after inoculation (2.5 × 10^4)): <10 CFU/g
- Number of surviving microorganisms per g of contaminated sample, Molds II (Molds II; 14 days after inoculation (2.5 × 10^4)): <10 CFU/g
- Preservative action against the microorganisms used (all microorganisms used; 1 g/l in apple juice pH 4.5, up to 14 days): acts well and persistently against all microorganisms used, except for acetic acid bacteria and bacilli
- Preservative action compared with the single salts (all microorganisms used; same concentration, 1 g/l in apple juice pH 4.5): acts surprisingly better than calcium formate (in particular against lactic acid bacteria, yeasts and molds) or calcium sorbate (in particular against Gram-negative bacteria) used alone
- Number of surviving microorganisms per g of contaminated sample, Thermophilic bacilli (Thermophilic bacilli; 1 day after inoculation (1.3 × 10^4)): 2.0 × 10^3 CFU/g
- Number of surviving microorganisms per g of contaminated sample, Thermophilic bacilli (Thermophilic bacilli; 3 days after inoculation (1.3 × 10^4)): 3.0 × 10^2 CFU/g
- Number of surviving microorganisms per g of contaminated sample, Thermophilic bacilli (Thermophilic bacilli; 7 days after inoculation (1.3 × 10^4)): <10 CFU/g
- Number of surviving microorganisms per g of contaminated sample, Thermophilic bacilli (Thermophilic bacilli; 14 days after inoculation (1.3 × 10^4)): <10 CFU/g
- Number of surviving microorganisms per g of contaminated sample, Molds I (Molds I; 1 day after inoculation (2.2 × 10^4)): 3.8 × 10^3 CFU/g
- Number of surviving microorganisms per g of contaminated sample, Molds I (Molds I; 3 days after inoculation (2.2 × 10^4)): 2.0 × 10^2 CFU/g
- Number of surviving microorganisms per g of contaminated sample, Molds I (Molds I; 7 days after inoculation (2.2 × 10^4)): 25 CFU/g
- Number of surviving microorganisms per g of contaminated sample, Molds I (Molds I; 14 days after inoculation (2.2 × 10^4)): 10 CFU/g
- Number of surviving microorganisms per g of contaminated sample, Gram-positive bacteria (Gram-positive bacteria; 1 day after inoculation (2.1 × 10^4)): 2.1 × 10^4 CFU/g
- Number of surviving microorganisms per g of contaminated sample, Gram-positive bacteria (Gram-positive bacteria; 3 days after inoculation (2.1 × 10^4)): 8.5 × 10^3 CFU/g
- Number of surviving microorganisms per g of contaminated sample, Gram-positive bacteria (Gram-positive bacteria; 7 days after inoculation (2.1 × 10^4)): 6.8 × 10^2 CFU/g
- Number of surviving microorganisms per g of contaminated sample, Gram-positive bacteria (Gram-positive bacteria; 14 days after inoculation (2.1 × 10^4)): <10 CFU/g
- Number of surviving microorganisms per g of contaminated sample, Lactic acid bacteria (Lactic acid bacteria; [2]): 3.9 × 10^3 CFU/g
- Number of surviving microorganisms per g of contaminated sample, Lactic acid bacteria (Lactic acid bacteria; [3]): 1.5 × 10^3 CFU/g
- Number of surviving microorganisms per g of contaminated sample, Lactic acid bacteria (Lactic acid bacteria; [4]): <10 CFU/g
- Number of surviving microorganisms per g of contaminated sample, Lactic acid bacteria (Lactic acid bacteria; [5]): <10 CFU/g
- Number of surviving microorganisms per g of contaminated sample, Clostridia (Clostridia; 1 day after inoculation (2.9 × 10^4)): 1.1 × 10^3 CFU/g
- Number of surviving microorganisms per g of contaminated sample, Clostridia (Clostridia; 3 days after inoculation (2.9 × 10^4)): <100 CFU/g
- Number of surviving microorganisms per g of contaminated sample, Clostridia (Clostridia; 7 days after inoculation (2.9 × 10^4)): 100 CFU/g
- Number of surviving microorganisms per g of contaminated sample, Clostridia (Clostridia; 14 days after inoculation (2.9 × 10^4)): <10 CFU/g
